{
  "source": "patent US20250207131A1",
  "about": "“MODIFIED RNA AGENTS WITH REDUCED OFF-TARGET EFFECT” (Alnylam Pharmaceuticals, Inc., priority 2018, published 2025)",
  "key": {"DNA Pol-γ": {"molecular_target": "T1, DNA Pol-γ (Homo sapiens, UniProt P54098)", "T1 sequence (P54098 1-1239)": "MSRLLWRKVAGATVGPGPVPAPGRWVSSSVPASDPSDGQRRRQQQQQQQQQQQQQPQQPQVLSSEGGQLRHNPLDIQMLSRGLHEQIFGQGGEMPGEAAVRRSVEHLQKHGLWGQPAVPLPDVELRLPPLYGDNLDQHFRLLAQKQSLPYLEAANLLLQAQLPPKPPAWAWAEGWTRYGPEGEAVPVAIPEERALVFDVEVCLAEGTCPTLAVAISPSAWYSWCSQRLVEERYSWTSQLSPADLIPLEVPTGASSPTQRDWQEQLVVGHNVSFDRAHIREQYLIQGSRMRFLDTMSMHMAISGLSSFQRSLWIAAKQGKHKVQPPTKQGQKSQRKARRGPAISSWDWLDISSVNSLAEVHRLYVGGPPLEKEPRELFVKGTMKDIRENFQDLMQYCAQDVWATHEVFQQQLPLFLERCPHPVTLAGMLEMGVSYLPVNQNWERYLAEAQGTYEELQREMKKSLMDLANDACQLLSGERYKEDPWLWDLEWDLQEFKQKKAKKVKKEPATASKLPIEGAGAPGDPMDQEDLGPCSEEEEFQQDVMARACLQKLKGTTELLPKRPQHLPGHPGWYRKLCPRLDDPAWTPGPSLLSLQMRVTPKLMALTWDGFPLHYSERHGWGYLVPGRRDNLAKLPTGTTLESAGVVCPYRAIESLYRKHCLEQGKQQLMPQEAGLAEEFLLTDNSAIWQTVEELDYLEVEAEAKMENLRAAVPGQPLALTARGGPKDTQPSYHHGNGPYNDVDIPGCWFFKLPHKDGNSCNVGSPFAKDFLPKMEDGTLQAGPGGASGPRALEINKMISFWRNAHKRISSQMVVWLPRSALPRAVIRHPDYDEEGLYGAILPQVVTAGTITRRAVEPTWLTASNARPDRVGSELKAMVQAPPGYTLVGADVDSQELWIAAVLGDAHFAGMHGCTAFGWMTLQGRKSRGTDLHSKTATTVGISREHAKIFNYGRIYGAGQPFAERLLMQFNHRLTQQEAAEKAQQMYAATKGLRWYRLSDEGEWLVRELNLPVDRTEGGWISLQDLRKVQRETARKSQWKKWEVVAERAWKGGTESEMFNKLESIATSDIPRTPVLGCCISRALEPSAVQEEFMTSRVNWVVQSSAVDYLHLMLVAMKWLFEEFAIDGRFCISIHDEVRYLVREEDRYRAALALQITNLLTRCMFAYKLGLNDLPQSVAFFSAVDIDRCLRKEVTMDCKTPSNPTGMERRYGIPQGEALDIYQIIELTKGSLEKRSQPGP", "test": "Triphosphate incorporation assay by DNA Pol-γ", "type": "biochemical", "settings": "100 nM template, 100 nM primer, 40 Units of enzyme, 1 mM or 100 μM dNTPs, 30 min, 37° C.", "procedure": "(§1) 5′-(R)- and (S)—C-Me-guanosine triphosphate Evaluations: 5′-(R)- and (S)—C-Me-guanosine triphosphate were evaluated with Pol-RMT and DNA Pol-γ. Mitochondrial toxicity is a common feature with nucleoside analog drugs (liver/metabolic effects, myopathies, peripheral neuropathy). Replication of mitochondria occurs during all phases of cell cycle, including post-mitotic cells. Mito replication in post-mitotic cells becomes preferential consumer of endogenous nucleotide pools. Mitochondrial polymerases (pol-γ, Pol-RMT) have limited exonuclease (proofreading) capability. Alterations/effects to nuclear DNA more likely to manifest in other test systems. […] Analytical IEX-HPLC with fluorescence detection for optimal resolution of primer-extended products is used to detect—especially important in competition mixtures. This assays was applied for the assessment of incorporation efficiencies.\nThe reaction conditions were: Reaction: 100 nM template, 100 nM primer, 40 Units of enzyme and 1 mM or 100 μM dNTPs, 30 min, 37° C.; diluted to 5 nM primer and analyzed by FLD-IEX-HPLC (Ex: 437, Em: 483 nm)."}, "Pol-RMT": {"molecular_target": "Pol-RMT (Homo sapiens, UniProt O00411)", "sequence (O00411 42-1230, species assumed)": "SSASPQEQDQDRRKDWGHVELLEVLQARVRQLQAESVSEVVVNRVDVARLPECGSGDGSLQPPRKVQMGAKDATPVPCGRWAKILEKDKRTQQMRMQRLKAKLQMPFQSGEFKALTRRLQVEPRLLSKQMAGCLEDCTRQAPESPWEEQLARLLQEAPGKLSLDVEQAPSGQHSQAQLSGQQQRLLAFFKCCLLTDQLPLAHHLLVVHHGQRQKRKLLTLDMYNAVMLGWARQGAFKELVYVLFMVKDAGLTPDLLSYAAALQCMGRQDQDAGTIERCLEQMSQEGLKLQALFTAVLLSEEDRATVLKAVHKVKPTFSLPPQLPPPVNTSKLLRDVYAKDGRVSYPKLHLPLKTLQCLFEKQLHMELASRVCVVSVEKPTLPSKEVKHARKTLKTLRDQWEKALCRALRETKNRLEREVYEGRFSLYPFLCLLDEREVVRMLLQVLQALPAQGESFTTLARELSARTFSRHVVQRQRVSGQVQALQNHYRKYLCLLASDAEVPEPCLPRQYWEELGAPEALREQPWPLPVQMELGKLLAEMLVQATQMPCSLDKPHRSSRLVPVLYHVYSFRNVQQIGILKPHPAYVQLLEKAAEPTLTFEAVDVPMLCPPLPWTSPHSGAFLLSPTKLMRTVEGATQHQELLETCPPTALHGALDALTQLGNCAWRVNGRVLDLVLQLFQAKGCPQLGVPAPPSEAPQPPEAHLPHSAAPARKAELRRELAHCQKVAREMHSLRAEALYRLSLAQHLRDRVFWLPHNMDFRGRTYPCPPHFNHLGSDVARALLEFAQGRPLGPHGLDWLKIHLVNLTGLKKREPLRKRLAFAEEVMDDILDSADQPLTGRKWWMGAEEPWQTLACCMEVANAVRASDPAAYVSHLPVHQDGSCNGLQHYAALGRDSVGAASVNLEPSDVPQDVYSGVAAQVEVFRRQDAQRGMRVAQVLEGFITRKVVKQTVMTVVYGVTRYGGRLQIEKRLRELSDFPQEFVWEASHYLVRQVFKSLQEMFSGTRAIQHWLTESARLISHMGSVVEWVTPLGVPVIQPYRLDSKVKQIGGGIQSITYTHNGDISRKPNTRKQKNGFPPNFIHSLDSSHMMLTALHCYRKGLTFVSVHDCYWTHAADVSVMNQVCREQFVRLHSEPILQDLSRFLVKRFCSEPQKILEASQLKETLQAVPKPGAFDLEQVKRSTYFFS", "test": "Triphosphate incorporation assay by Pol-RMT", "type": "biochemical", "settings": "200 nM template, 50 nM primer, 300 nM enzyme, 1 mM or 100 μM NTPs, 30 min, 35° C.", "procedure": "as §1\nThe reaction conditions were; 200 nM template, 50 nM primer, 300 nM enzyme and 1 mM or 100 μM NTPs, 30 min, 35° C."}, "[1]": {"settings": "rat, in vivo, sc, 30 mg/kg"}, "GO1 (HAO1)": {"system": "GO1 (HAO1)", "test": "In vitro on-target activity, primary mouse hepatocytes, transfection, RT-qPCR (GO1/HAO1 siRNAs)", "type": "cell-based", "settings": "HAO1 (Seq 1)", "procedure": "Cell culture and transfections: Primary Mouse Hepatocytes (Thermo Fisher Scientific/Gibco) were transfected by adding 4.9 μL of Opti-MEM plus 0.1 μL of Lipofectamine RNAiMax per well (Invitrogen, cat #13778-150) to 5 μL of siRNA duplexes per well into a 384-well plate and incubated at room temperature for 15 minutes. 40 μL of Dulbecco's Modified Eagle Medium (Hep3b) or William's Medium (PMH) containing ˜5 ×10^3 cells were then added to the siRNA mixture. Cells were incubated for 24 hours at 37° C. and then processed for RNA purification. Experiments were performed at 10 nM and 0.1 nM doses of siRNA.\nTotal RNA isolation using DYNABEADS mRNA Isolation Kit: RNA was isolated using an automated protocol on a BioTek-EL406 platform using DYNABEADs (Invitrogen, cat #61012). Briefly, 70 μL of Lysis/Binding Buffer and 10 μL of lysis buffer containing 3 μL of magnetic beads were added to each well. […]\nReal time PCR: 2 μL of cDNA were added to a master mix containing 2 μL water, 0.5 μL of either an appropriate GAPDH TaqMan VIC Probe or the target probe and 5 μL Lightcycler 480 probe master mix (Roche, cat #04887301001) per well in a 384 well plate (Roche, cat #04887301001). […] To calculate relative fold change, real time data were analyzed using the ΔΔCt method and normalized to assays performed with cells transfected with a non-targeting control siRNA."}, "[2]": {"test": "Rat toxicity study, clinical pathology parameters", "settings": "rats, single subcutaneous dose 30 mg/kg, cohort average"}, "[3]": {"system": "luciferase reporter plasmids (psiCHECK2, Renilla luciferase fused to target sequence)", "test": "Off-target Dual-Glo luciferase reporter assay in COS-7 cells", "type": "cell-based", "settings": "HAO1 (Seq 1); luciferase reporter plasmids co-transfected with siRNAs into COS-7 cells", "procedure": "Dual-Glo® Luciferase assay: Cos7 cells (ATCC, Manassas, VA) were grown to near confluence at 37° C. in an atmosphere of 5% CO2 in DMEM (ATCC) supplemented with 10% FBS, before being released from the plate by trypsinization. siRNA and psiCHCECK2 plasmid transfection was carried out by adding 5 μL of siRNA duplexes and 5 μL of psiCHECK2 plasmid per well along with 5 μL of Opti-MEM plus 0.1 μL of Lipofectamine 2000 per well (Invitrogen, Carlsbad CA. cat #13778-150) and then incubated at room temperature for 15 minutes. The mixture was then added to the cells which were re-suspended in 35 ul of fresh complete media. The transfected cells were incubated at 37° C. in an atmosphere of 5% CO2.\n48 hours after the siRNAs and psiCHECK2 plasmid were transfected; Firefly (transfection control) and Renilla (fused to target sequence) luciferase were measured. First, media was removed from cells. Then Firefly luciferase activity was measured by adding 20 μL of Dual-Glo® Luciferase Reagent equal to the culture medium volume to each well and mix. The mixture was incubated at room temperature for 30 minutes before luminescence (500 nm) was measured on a Spectramax (Molecular Devices) to detect the Firefly luciferase signal. Renilla luciferase activity was measured by adding 20 μL of room temperature of Dual-Glo® Stop & Glo® Reagent was added to each well and the plates were incubated for 10-15 minutes before luminescence was again measured to determine the Renilla luciferase signal. The Dual-Glo® Stop & Glo® Reagent, quenches the firefly luciferase signal and sustained luminescence for the Renilla luciferase reaction. siRNA activity was determined by normalizing the Renilla signal to the Firefly (control) signal within each well. The magnitude of siRNA activity was then assessed relative to cells that were transfected with the same vector but were not treated with siRNA or were treated with a non-targeting siRNA. All transfections were done at n=2 or greater."}},
  "data": [
    {"molecule": "C[C@@H](OP(=O)(O)OP(=O)(O)OP(=O)(O)O)[C@H]1O[C@@H](n2cnc3c(=O)[nH]c(N)nc32)[C@H](O)[C@@H]1O", "note": "[5′-(R)—C-Me-GTP, 5′-(R)—C-Me-guanosine triphosphate]", "values": [
      {"measurement": "incorporation by Pol-γ", "setting": "DNA Pol-γ", "value": "Neither 5′-(S) nor (R)—C-Me-Gtp incorporate in Pol-γ at high concentrations"},
      {"measurement": "incorporation by Pol-RMT", "setting": "Pol-RMT", "value": "appears not incorporate in Pol-RMT"}
    ]},
    {"molecule": "C[C@H](OP(=O)(O)OP(=O)(O)OP(=O)(O)O)[C@H]1O[C@@H](n2cnc3c(=O)[nH]c(N)nc32)[C@H](O)[C@@H]1O", "note": "[5′-(S)—C-Me-G triphosphate (GTP), 5′-(S)—C-Me-guanosine triphosphate]", "values": [
      {"measurement": "incorporation by Pol-γ", "setting": "DNA Pol-γ", "value": "Neither 5′-(S) nor (R)—C-Me-Gtp incorporate in Pol-γ at high concentrations"},
      {"measurement": "incorporation by Pol-RMT", "setting": "Pol-RMT", "value": "incorporates in Pol-RMT at high concentrations"}
    ]},
    {"molecule": "Parent (AD-65644): GO1 siRNA; passenger g•a•auguGaaAGucaucgacaa(L), guide u•U•gucGaUGacuuUcAcauuc•u•g (sense AUGUGAAAGUCAUCGACAA; antisense GUCGAUGACUUUCACAUUC; phosphorothioate ends, overhangs, chemistry not fully specified)", "values": [
      {"measurement": "A/G Avg.", "setting": "[1]", "value": 1.1},
      {"measurement": "On-Target mRNA remaining (%) 0.1 nM siRNA", "setting": "GO1 (HAO1); 0.1 nM siRNA", "value": 96.1, "unit": "%"},
      {"measurement": "On-Target mRNA remaining (%) 10 nM siRNA", "setting": "GO1 (HAO1); 10 nM siRNA", "value": 27.7, "unit": "%"},
      {"measurement": "ALB Avg.", "setting": "[2]", "value": 3.0, "unit": "g/dL"},
      {"measurement": "ALP Avg.", "setting": "[2]", "value": 449, "unit": "U/L"},
      {"measurement": "ALT Avg.", "setting": "[2]", "value": 47, "unit": "U/L"},
      {"measurement": "AST Avg.", "setting": "[2]", "value": 180, "unit": "U/L"},
      {"measurement": "BILI Avg.", "setting": "[2]", "value": 0.52, "unit": "mg/dL"},
      {"measurement": "CA Avg.", "setting": "[2]", "value": 10.3, "unit": "mg/dL"},
      {"measurement": "CHOL Avg.", "setting": "[2]", "value": 74, "unit": "mg/dL"},
      {"measurement": "CREAT Avg.", "setting": "[2]", "value": 0.23, "unit": "mg/dL"},
      {"measurement": "GLDH Avg.", "setting": "[2]", "value": 77.5, "unit": "U/L"},
      {"measurement": "GLOB Avg.", "setting": "[2]", "value": 2.63, "unit": "g/dL"},
      {"measurement": "GLUC Avg.", "setting": "[2]", "value": 113, "unit": "mg/dL"},
      {"measurement": "K Avg.", "setting": "[2]", "value": 4.3, "unit": "mmol/L"},
      {"measurement": "NA Avg.", "setting": "[2]", "value": 140, "unit": "mmol/L"},
      {"measurement": "PHOS Avg.", "setting": "[2]", "value": 8.8, "unit": "mg/dL"},
      {"measurement": "PROT Avg.", "setting": "[2]", "value": 6, "unit": "g/dL"},
      {"measurement": "TRIG Avg.", "setting": "[2]", "value": 138, "unit": "mg/dL"},
      {"measurement": "UREAN Avg.", "setting": "[2]", "value": 16.8, "unit": "mg/dL"},
      {"measurement": "IC50", "setting": "[3]", "value": 0.53, "unit": "nM"}
    ]}
  ]
}
